Measurements reported in PMC6041282, “Inhibition and Eradication of Pseudomonas aeruginosa Biofilms by Host Defence Peptides” (Scientific Reports, 2018).
≈ marks a conversion by molar mass, not a printed value. Where no end group is shown, it is not given here.

test system: planktonic P. aeruginosa; settings: broth dilution in MHB, 0-40 μM peptide, no visual growth after 24 h at 37 °C, polypropylene 96 wells plate
Protocol: Antimicrobial activity of HDP’s against planktonic P. aeruginosa was assessed using broth dilution assays. An overnight culture of P. aeruginosa was grown in MHB at 37 °C to mid-logarithmic phase and diluted to 2 × 10^6 CFU/ml. In a round bottom polypropylene 96 wells plate 50 μl bacteria were mixed with 50 μl of HDP (final concentration 0–40 μM). MIC was defined as the concentration of peptide which inhibited visual growth of bacteria in the wells after 24 h incubation at 37 °C. Subsequently, wells without visual growth were plated out on TSA plates and incubated at 37 °C for 24 h to determine the MBC.

Compound	MIC
CC[C@H](C)[C@H](NC(=O)[C@H](CCCCN)NC(=O)[C@H](CCC(=O)O)NC(=O)[C@H](CCCCN)NC(=O)[C@H](CO)NC(=O)[C@H](CCCCN)NC(=O)[C@H](CCCNC(=N)N)NC(=O)[C@H](Cc1ccccc1)NC(=O)[C@H](Cc1ccccc1)NC(=O)[C@H](CC(=O)O)NC(=O)CNC(=O)[C@H](CC(C)C)NC(=O)[C@@H](N)CC(C)C)C(=O)NCC(=O)N[C@@H](CCCCN)C(=O)N[C@@H](CCC(=O)O)C(=O)N[C@@H](Cc1ccccc1)C(=O)N[C@@H](CCCCN)C(=O)N[C@@H](CCCNC(=N)N)C(=O)N[C@H](C(=O)N[C@H](C(=O)N[C@@H](CCC(N)=O)C(=O)N[C@@H](CCCNC(=N)N)C(=O)N[C@H](C(=O)N[C@@H](CCCCN)C(=O)N[C@@H](CC(=O)O)C(=O)N[C@@H](Cc1ccccc1)C(=O)N[C@@H](CC(C)C)C(=O)N[C@@H](CCCNC(=N)N)C(=O)N[C@@H](CC(N)=O)C(=O)N[C@@H](CC(C)C)C(=O)N[C@H](C(=O)N1CCC[C@H]1C(=O)N[C@@H](CCCNC(=N)N)C(=O)N[C@H](C(=O)N[C@@H](CCC(=O)O)C(=O)N[C@@H](CO)C(=O)O)[C@@H](C)O)C(C)C)[C@@H](C)CC)C(C)C)[C@@H](C)CC [LL-37]	10 µM (≈ 44.9 µg/mL)
GLLRKGGEKIGEKLKKIGQKIKNFFQKLVPQPEQ [CRAMP]	40 µM

same assay, conditions: planktonic, 24 h

MIC	Compound	MBC
2.5 to 5 µM	KRFGRLAKSFLRMRILLPRRKILLAS [eCATH-1]	5 to 10 µM
> 40 µM	KRFHSVGSLIQRHQQMIRDKSEATRHGIRIITRPKLLLAS [eCATH-3]	> 40 µM
> 40 µM	KRRHWFPLSFQEFLEQLRRFRDQLPFP [eCATH-2]	> 40 µM
5 to 10 µM	RFGRFLRKIRRFRPKVTITIQGSARF [cCATH-2]	10 to 20 µM
40 µM	RIIDLLWRVRRPQKPKFVTVWVR [PMAP-23]	> 40 µM
40 µM	RLKELITTGGQKIGEKIRRIGQRIKDFFKNLQPREEKS [K9CATH]	> 40 µM
5 to 10 µM	RRRPRPPYLPRPRPPPFFPPRLPPRIPPGFPPRFPPRFP [PR-39]	10 µM
–	RVKRFWPLVPVAINTVAAGINLYKAIRRK [cCATH-3]	5 to 10 µM

same assay, conditions: wells without visual growth plated on TSA, 24 h at 37 °C

Compound	MBC
CC[C@H](C)[C@H](NC(=O)[C@H](CCCCN)NC(=O)[C@H](CCC(=O)O)NC(=O)[C@H](CCCCN)NC(=O)[C@H](CO)NC(=O)[C@H](CCCCN)NC(=O)[C@H](CCCNC(=N)N)NC(=O)[C@H](Cc1ccccc1)NC(=O)[C@H](Cc1ccccc1)NC(=O)[C@H](CC(=O)O)NC(=O)CNC(=O)[C@H](CC(C)C)NC(=O)[C@@H](N)CC(C)C)C(=O)NCC(=O)N[C@@H](CCCCN)C(=O)N[C@@H](CCC(=O)O)C(=O)N[C@@H](Cc1ccccc1)C(=O)N[C@@H](CCCCN)C(=O)N[C@@H](CCCNC(=N)N)C(=O)N[C@H](C(=O)N[C@H](C(=O)N[C@@H](CCC(N)=O)C(=O)N[C@@H](CCCNC(=N)N)C(=O)N[C@H](C(=O)N[C@@H](CCCCN)C(=O)N[C@@H](CC(=O)O)C(=O)N[C@@H](Cc1ccccc1)C(=O)N[C@@H](CC(C)C)C(=O)N[C@@H](CCCNC(=N)N)C(=O)N[C@@H](CC(N)=O)C(=O)N[C@@H](CC(C)C)C(=O)N[C@H](C(=O)N1CCC[C@H]1C(=O)N[C@@H](CCCNC(=N)N)C(=O)N[C@H](C(=O)N[C@@H](CCC(=O)O)C(=O)N[C@@H](CO)C(=O)O)[C@@H](C)O)C(C)C)[C@@H](C)CC)C(C)C)[C@@H](C)CC [LL-37]	10 to 20 µM
GLLRKGGEKIGEKLKKIGQKIKNFFQKLVPQPEQ [CRAMP]	> 40 µM
